Results published in PubChem BioAssay (NCI).
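The compound was tested at five concentrations on cells cultured in 96-well plates, with a 48-hour exposure period. The concentration for 50% growth inhibition is given as GI50. The concentration for full growth arrest is given as TGI.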 *1 amine or outer side, *2 acyl side, *3 side chain or, on linkers, in order; H or OH if unused. Where a SMILES comes first, the peptide text is derived from it. [ ]: non-standard residue; d: D form. ξ: configuration not given here. X21 = CC[C@@H](C)C(N[*:1])C(=O)[*:2]; ξR = N=C(N)NCCCC(N)C(=O)O; ξI = CCC(C)C(N)C(=O)O; ξL = CC(C)CC(N)C(=O)O; ξK = NCCCCC(N)C(=O)O; ξV = CC(C)C(N)C(=O)O; ξA = CC(N)C(=O)O

What was measured:
Experiment in all cases: NCI-60 cell line screen, 48 h
RPMI-8226 leukemia = test system: RPMI-8226 leukemia
SNB-75 CNS = test system: SNB-75 CNS
MCF7 breast = test system: MCF7 breast
SF-539 CNS = test system: SF-539 CNS
TK-10 renal = test system: TK-10 renal
SK-MEL-5 melanoma = test system: SK-MEL-5 melanoma
HL-60(TB) leukemia = test system: HL-60(TB) leukemia
OVCAR-8 ovarian = test system: OVCAR-8 ovarian
OVCAR-4 ovarian = test system: OVCAR-4 ovarian
SN12C renal = test system: SN12C renal

## COc1ccc(-c2csc(NC(=O)c3cc(O)c(O)c(O)c3)n2)cc1
RPMI-8226 leukemia
  GI50: 5.59 µM
  TGI: > 33.3 µM
SNB-75 CNS
  GI50: 6.32 µM
  TGI: > 33.3 µM
MCF7 breast
  GI50: 10.7 µM
  TGI: > 33.3 µM
SF-539 CNS
  GI50: 7.64 µM
  TGI: > 33.3 µM
TK-10 renal
  GI50: 6.36 µM
  TGI: > 33.3 µM
SK-MEL-5 melanoma
  GI50: 6.04 µM
  TGI: > 33.3 µM
HL-60(TB) leukemia
  GI50: 8.28 µM
  TGI: 23.9 µM
OVCAR-8 ovarian
  GI50: 7.52 µM
  TGI: > 33.3 µM
OVCAR-4 ovarian
  GI50: 7.27 µM
  TGI: > 33.3 µM
SN12C renal
  GI50: 7.42 µM
  TGI: > 33.3 µM

## CN1CCN(c2ccc(C(=O)Nc3cc(-c4cccc(NS(=O)(=O)c5ccccc5)c4)[nH]n3)cc2)CC1
RPMI-8226 leukemia
  GI50: 3.33 µM
  TGI: 14.5 µM
SNB-75 CNS
  GI50: 1.61 µM
  TGI: 11.1 µM
MCF7 breast
  GI50: 3.25 µM
  TGI: 16.9 µM
SF-539 CNS
  GI50: 1.79 µM
  TGI: 9.57 µM
TK-10 renal
  GI50: 12.4 µM
  TGI: 26.7 µM
SK-MEL-5 melanoma
  GI50: 4.17 µM
  TGI: 9.23 µM
HL-60(TB) leukemia
  GI50: 3.94 µM
  TGI: 16.1 µM
OVCAR-8 ovarian
  GI50: 13.4 µM
  TGI: 32.3 µM
OVCAR-4 ovarian
  GI50: 6.42 µM
  TGI: 28.7 µM
SN12C renal
  GI50: 7.82 µM
  TGI: 24 µM

## CNCCCNCCCN1C(=O)c2ccc3c4c(ccc(c24)C1=O)C(=O)N(CCCNCc1ccccc1OC)C3=O
RPMI-8226 leukemia
  GI50: 1.64 µM
  TGI: 9.44 µM
SNB-75 CNS
  GI50: 1.11 µM
  TGI: 2.51 µM
MCF7 breast
  GI50: 0.512 µM
  TGI: 3.21 µM
SF-539 CNS
  GI50: 0.782 µM
  TGI: 2.29 µM
TK-10 renal
  GI50: 2.58 µM
  TGI: 14.1 µM
SK-MEL-5 melanoma
  GI50: 1.1 µM
  TGI: 2.32 µM
HL-60(TB) leukemia
  GI50: 2 µM
  TGI: 7.09 µM
OVCAR-8 ovarian
  GI50: 0.797 µM
  TGI: 9.43 µM
OVCAR-4 ovarian
  GI50: 0.642 µM
  TGI: 2.04 µM
SN12C renal
  GI50: 1.46 µM
  TGI: 3.41 µM

## COc1ccc(-c2cc(=O)c3c(OC)c(OC)c(OC)c(OC)c3o2)c(OC)c1
RPMI-8226 leukemia
  TGI: > 100 µM
SNB-75 CNS
  TGI: > 100 µM
MCF7 breast
  TGI: 44 µM
SF-539 CNS
  TGI: > 100 µM
TK-10 renal
  TGI: > 100 µM
SK-MEL-5 melanoma
  TGI: 55.8 µM
HL-60(TB) leukemia
  TGI: > 100 µM
OVCAR-8 ovarian
  TGI: > 100 µM
OVCAR-4 ovarian
  TGI: 94.4 µM
SN12C renal
  TGI: 62.6 µM

## Nc1ncnc2c1cnn2Cc1ccc(Cl)cc1
RPMI-8226 leukemia
  GI50: > 100 µM
  TGI: > 100 µM
SNB-75 CNS
  TGI: > 100 µM
MCF7 breast
  TGI: > 100 µM
SF-539 CNS
  GI50: 67.4 µM
  TGI: > 100 µM
TK-10 renal
  TGI: > 100 µM
SK-MEL-5 melanoma
  TGI: > 100 µM
HL-60(TB) leukemia
  TGI: > 100 µM
OVCAR-8 ovarian
  TGI: > 100 µM
OVCAR-4 ovarian
  TGI: > 100 µM
SN12C renal
  TGI: > 100 µM

## Cn1c(=O)c(Oc2ccccc2)cc2cnc(NC3CCOCC3)nc21
RPMI-8226 leukemia
  GI50: > 25 µM
  TGI: > 25 µM
SNB-75 CNS
  GI50: > 25 µM
  TGI: > 25 µM
MCF7 breast
  GI50: > 25 µM
  TGI: > 25 µM
SF-539 CNS
  GI50: > 25 µM
  TGI: > 25 µM
TK-10 renal
  GI50: > 25 µM
  TGI: > 25 µM
SK-MEL-5 melanoma
  GI50: > 25 µM
  TGI: > 25 µM
HL-60(TB) leukemia
  GI50: > 25 µM
  TGI: > 25 µM
OVCAR-8 ovarian
  GI50: > 25 µM
  TGI: > 25 µM
OVCAR-4 ovarian
  GI50: > 25 µM
  TGI: > 25 µM
SN12C renal
  GI50: > 25 µM
  TGI: > 25 µM

## COc1ccc(/C=C/NC=O)cc1
RPMI-8226 leukemia
  TGI: > 100 µM
SNB-75 CNS
  TGI: > 100 µM
MCF7 breast
  TGI: > 100 µM
SF-539 CNS
  TGI: > 100 µM
TK-10 renal
  TGI: > 100 µM
SK-MEL-5 melanoma
  TGI: > 100 µM
HL-60(TB) leukemia
  TGI: > 100 µM
OVCAR-8 ovarian
  TGI: > 100 µM
OVCAR-4 ovarian
  TGI: > 100 µM
SN12C renal
  TGI: > 100 µM

## C=CC1=C(C)C2=NC1=CC1=NC(=CC3=C(C)C4=C(O)C(C(=O)OC)C(=C5NC(=C2)C(C)C5CCC(=O)OC)C4=N3)C(CC)=C1C (stereo unspecified)
RPMI-8226 leukemia
  TGI: > 100 µM
SNB-75 CNS
  TGI: > 100 µM
MCF7 breast
  TGI: > 100 µM
SF-539 CNS
  TGI: > 100 µM
TK-10 renal
  TGI: > 100 µM
SK-MEL-5 melanoma
  TGI: > 100 µM
HL-60(TB) leukemia
  TGI: > 100 µM
OVCAR-8 ovarian
  TGI: > 100 µM
OVCAR-4 ovarian
  TGI: > 100 µM
SN12C renal
  TGI: > 100 µM

## Cc1[nH]nc2c1N=C(c1ccccc1Cl)c1cc([N+](=O)[O-])ccc1N2
RPMI-8226 leukemia
  GI50: 0.97 µM
  TGI: > 25 µM
SNB-75 CNS
  GI50: 0.0215 µM
MCF7 breast
  GI50: 0.142 µM
  TGI: > 25 µM
SF-539 CNS
  GI50: 0.132 µM
  TGI: > 5.27 µM
TK-10 renal
  GI50: 9.23 µM
  TGI: > 25 µM
SK-MEL-5 melanoma
  GI50: 0.204 µM
  TGI: > 25 µM
HL-60(TB) leukemia
  GI50: 0.104 µM
  TGI: > 25 µM
OVCAR-8 ovarian
  GI50: > 25 µM
  TGI: > 25 µM
OVCAR-4 ovarian
  GI50: 5.15 µM
  TGI: > 25 µM
SN12C renal
  GI50: 3.29 µM
  TGI: > 25 µM

## NC1CCC(N[C@@H]2C[C@H]2c2ccccc2)CC1 (stereo partly specified)
RPMI-8226 leukemia
  GI50: 41.8 µM
  TGI: > 100 µM
SNB-75 CNS
  GI50: 8.89 µM
  TGI: > 100 µM
MCF7 breast
  GI50: > 100 µM
  TGI: > 100 µM
SF-539 CNS
  GI50: 15.3 µM
  TGI: 52 µM
TK-10 renal
  GI50: > 100 µM
  TGI: > 100 µM
SK-MEL-5 melanoma
  GI50: > 100 µM
  TGI: > 100 µM
HL-60(TB) leukemia
  GI50: > 100 µM
  TGI: > 100 µM
OVCAR-8 ovarian
  GI50: > 100 µM
  TGI: > 100 µM
OVCAR-4 ovarian
  GI50: > 100 µM
  TGI: > 100 µM
SN12C renal
  GI50: > 100 µM
  TGI: > 100 µM

## C/C(=N\N=C(N)N)C(CN(C)C)C(c1ccccc1)c1c(O)c2ccccc2oc1=O (stereo unspecified)
RPMI-8226 leukemia
  TGI: > 100 µM
SNB-75 CNS
  TGI: > 100 µM
MCF7 breast
  TGI: > 100 µM
SF-539 CNS
  TGI: > 100 µM
TK-10 renal
  TGI: > 100 µM
SK-MEL-5 melanoma
  TGI: > 100 µM
HL-60(TB) leukemia
  TGI: > 100 µM
OVCAR-8 ovarian
  TGI: > 100 µM
OVCAR-4 ovarian
  TGI: > 100 µM
SN12C renal
  TGI: > 100 µM

## CC(=O)OC1Oc2ccccc2-c2oc(=O)c(-c3cc4ccccc4oc3=O)cc21 (stereo unspecified)
RPMI-8226 leukemia
  GI50: 18.7 µM
  TGI: 41.2 µM
SNB-75 CNS
  GI50: 17.3 µM
  TGI: 34.5 µM
MCF7 breast
  GI50: 15.3 µM
  TGI: 34.1 µM
SF-539 CNS
  GI50: 19.8 µM
  TGI: 39.2 µM
TK-10 renal
  GI50: 18.3 µM
  TGI: 37.2 µM
SK-MEL-5 melanoma
  GI50: 24.8 µM
  TGI: 57.8 µM
HL-60(TB) leukemia
  GI50: 39 µM
  TGI: > 100 µM
OVCAR-8 ovarian
  GI50: 17.8 µM
  TGI: 36.7 µM
OVCAR-4 ovarian
  GI50: 23.1 µM
  TGI: 50.9 µM
SN12C renal
  GI50: 21.5 µM
  TGI: 53.8 µM

## CCC(C)C1NC(=O)C(CC(C)C)NC(=O)C(C)NC(=O)C(C(C)C)NC(=O)C(CCCCN)NC(=O)C(CC(C)C)NC(=O)C(C(C)C)NC(=O)[C@H](C)NC(=O)C(C(C)CC)NC(=O)C(CCCN=C(N)N)NC(=O)C(CCCCN)NC(=O)C(CCCN=C(N)N)NC(=O)C(CCCCN)NC(=O)C([C@H](C)CC)NC(=O)C(CCCCN)NC1=O (stereo partly specified) (cyclo(A[ξV][ξL][ξK][ξV][ξA][ξL][ξI][ξK][X21][ξK][ξR][ξK][ξR][ξI]))
RPMI-8226 leukemia
  GI50: 0.305 µM
  TGI: 1.13 µM
SNB-75 CNS
  GI50: 1.34 µM
  TGI: 3.24 µM
MCF7 breast
  GI50: 1.54 µM
  TGI: 5.65 µM
SF-539 CNS
  GI50: 1.84 µM
  TGI: 3.61 µM
TK-10 renal
  GI50: 1.62 µM
  TGI: 3.82 µM
SK-MEL-5 melanoma
  GI50: 0.6 µM
  TGI: 1.87 µM
HL-60(TB) leukemia
  GI50: 1.77 µM
  TGI: 4.44 µM
OVCAR-8 ovarian
  GI50: 1.48 µM
  TGI: 4.87 µM
OVCAR-4 ovarian
  GI50: 0.72 µM
  TGI: 10.2 µM
SN12C renal
  GI50: 1.37 µM
  TGI: 3.32 µM
